{"source": "patent US20230365959A1", "about": "“METHOD FOR IMPROVING THE STABILITY OF A COMPOSITION COMPRISING A FLAVIN-DEPENDENT LACTATE DEHYDROGENASE” (KIKKOMAN CORPORATION, priority 2020, published 2023)", "data": [{"system": "lactate dehydrogenase from Pichia kudriavzevii (PkLDH)", "assay": "Thermal stability of PkLDH (residual activity ratio after heat treatment, potassium phosphate buffer)", "type": "biochemical", "settings": "PkLDH 2 U/mL; added compound 300 mM; 150 mM potassium phosphate buffer pH 7.5, 0.15% BSA; 55°C for 15 minutes", "method": "Thermal stability of LDH can be evaluated by heating LDH at a given temperature for a given time and comparing the activity thereof before and after heating. […] The LDH activity of an LDH solution which is allowed to stand still on ice without heating is taken as 100 and the LDH activity after heating is calculated and, the residual activity ratio (ratio of remaining activity) (%) can be determined.\nMore specifically, the residual activity ratio (%) can be obtained by measuring LDH activity value (a) of a solution before heat treatment or before long-term storage and LDH activity value (b) of a solution after heat treatment or after long-term storage and calculating ((b)/(a)×100).\nUsing the purified PkLDH preparation obtained above, the residual activity ratio (%) in the presence and absence of an LDH stabilizer were compared in accordance with the LDH thermal stability evaluation method mentioned previously, and in this manner, a stabilizer was searched.\n(§1) The thermal stability of LDH was evaluated by heating LDH at a given temperature for a given time and comparing the activities before and after heating. […] Further, LDH activity of an LDH solution allowed to stand still on ice without any heat treatment was measured. Based on the activity of this case without any heat treatment taken as 100, the activities of LDH solutions after heat treatment were calculated to determine the residual activity ratio (%). More specifically, the residual activity ratio (%) can be obtained by measuring LDH activity value (a) of a solution before heat treatment or before long-term storage, and LDH activity value (b) of a solution after heat treatment or after long-term storage, and then, calculating ((b)/(a)×100).\nThe degree of LDH stability improving effect of each of the various added compounds was evaluated by preparing an LDH solution by allowing LDH to coexist with each of the various compounds, subjecting the solution to a heat treatment and determining the residual activity ratio (%) of the solution, and evaluating the residual activity (%) by mutually comparing the cases between compounds or comparing the case to a case where no compound was added.\n(§2) The activity of LDH was determined in accordance with the following procedure. […] Subsequently, a 30 mM PMS solution (50 μL) and an enzyme sample solution (50 μL) were added to the mixture to initiate a reaction. Absorbance at 520 nm was measured at the time of initiation of the reaction and over time and, the degree of reduction (ΔA520) in absorbance per minute as the enzymatic reaction progresses was obtained and LDH activity was calculated in accordance with the following Mathematical formula 2. Here, LDH activity is expressed by an enzyme (LDH) unit, and 1U is defined as the amount of the enzyme that can reduce 1 μmol DCIP per minute at 37° C. in the presence of 10 mM L-lactate.\nThe pH of the PkLDH solution was adjusted to be 7.5 after each of the compounds was added. Heat treatment was carried out at 55° C. for 15 minutes. As a comparative example, an LDH solution prepared without adding any compound was subjected to the same experiment. It should be noted that, unless specified otherwise, the reagents used herein were all purchased from Tokyo Chemical Industry Co., Ltd. […]", "units": {"Residual activity ratio (%)": "%"}, "values": [{"compound": "O=C(O)C(O)Cc1ccccc1", "note": "(racemic) [DL-phenyllactic acid, DL-3-phenyllactic acid]", "Residual activity ratio (%)": 87}, {"compound": "N.N.O=S(=O)(O)O", "note": "[Ammonium sulfate, ammonium sulfate]", "Residual activity ratio (%)": 54}, {"compound": "O=C(O)C[C@@H](O)C(=O)O", "note": "[D-malic acid]", "Residual activity ratio (%)": 47}, {"compound": "O=C(O)/C=C/C(=O)O", "note": "[Fumaric acid, fumaric acid]", "Residual activity ratio (%)": 41}, {"compound": "O=C(O)/C=C\\C(=O)O", "note": "[Maleic acid, maleic acid]", "Residual activity ratio (%)": 45}, {"compound": "O=C(O)CC(=O)C(=O)O", "note": "[Oxaloacetic acid, oxaloacetic acid]", "Residual activity ratio (%)": 45}, {"compound": "N[C@@H](CC(=O)O)C(=O)[O-].[Na+]", "note": "[Sodium aspartate, L-sodium aspartate]", "Residual activity ratio (%)": 64}, {"compound": "O=C([O-])CC(O)(CC(=O)[O-])C(=O)[O-].[Na+].[Na+].[Na+]", "note": "[Sodium citrate, sodium citrate]", "Residual activity ratio (%)": 42}, {"compound": "O=C([O-])[C@H](O)[C@@H](O)[C@H](O)[C@H](O)CO.[Na+]", "note": "[Sodium gluconate, sodium gluconate]", "Residual activity ratio (%)": 57}, {"compound": "O=S(=O)([O-])[O-].[Na+].[Na+]", "note": "[Sodium sulfate, sodium sulfate]", "Residual activity ratio (%)": 50}, {"compound": "O=C(O)CCC(=O)O", "note": "[Succinic acid, succinic acid]", "Residual activity ratio (%)": 54}, {"compound": "OC[C@H]1O[C@@](CO)(O[C@H]2O[C@H](CO)[C@@H](O)[C@H](O)[C@H]2O)[C@@H](O)[C@@H]1O", "note": "[Sucrose, sucrose]", "Residual activity ratio (%)": 42}, {"compound": "OC[C@H]1O[C@H](O[C@H]2O[C@H](CO)[C@@H](O)[C@H](O)[C@H]2O)[C@H](O)[C@@H](O)[C@@H]1O", "note": "[Trehalose dihydrate, trehalose dihydrate]", "Residual activity ratio (%)": 41}, {"compound": "DL-leucine acid", "Residual activity ratio (%)": 92}]}, {"system": "lactate dehydrogenase from Candida inconspicua (CaLDH)", "assay": "Thermal stability of CaLDH (residual activity ratio after heat treatment)", "type": "biochemical", "settings": "CaLDH 2 U/mL; compound 300 mM; potassium phosphate buffer pH 7.5; 50°C for 15 minutes", "method": "as §1, §2\nStability evaluation tests were conducted to check the improvement effect of malic acid on the stability of various LDHs. […] Each of these diluted enzyme solutions (a mixture of an enzyme and L-malic acid, LDH concentration: 2 U/mL, L-malic acid concentration: 300 mM) was heated in accordance with the thermal-stability evaluation method described in Section 4. More specifically, PkLDH was treated at 55° C., whereas, CaLDH and OgLDH were treated at 50° C. for 15 minutes and then the residual activity ratio (%) was calculated, based on the activity before heating taken as 100. […]", "units": {"improvement effect on the stability of LDH": "%"}, "values": [{"compound": "OC[C@H]1O[C@H](O[C@H]2[C@H](O)[C@@H](O)C(O)O[C@@H]2CO)[C@H](O)[C@@H](O)[C@@H]1O", "note": "(mixture of isomers) [maltose monohydrate]", "improvement effect on the stability of LDH": 5}, {"compound": "O=C(O)CN(CCN(CC(=O)O)CC(=O)O)CC(=O)O", "note": "[ethylenediaminetetraacetic acid]", "improvement effect on the stability of LDH": 56}]}, {"system": "lactate dehydrogenase from Ogataea parapolymorpha (OgLDH)", "assay": "Thermal stability of OgLDH (residual activity ratio after heat treatment)", "type": "biochemical", "settings": "OgLDH 2 U/mL; compound 300 mM; potassium phosphate buffer pH 7.5; 50°C for 15 minutes", "method": "as §1, §2\nStability evaluation tests were conducted to check the improvement effect of malic acid on the stability of various LDHs. […] Each of these diluted enzyme solutions (a mixture of an enzyme and L-malic acid, LDH concentration: 2 U/mL, L-malic acid concentration: 300 mM) was heated in accordance with the thermal-stability evaluation method described in Section 4. More specifically, PkLDH was treated at 55° C., whereas, CaLDH and OgLDH were treated at 50° C. for 15 minutes and then the residual activity ratio (%) was calculated, based on the activity before heating taken as 100. As a comparative example, a sample without adding any L-malic acid in the enzyme diluent was subjected to the same experiment, and the ratio of residual activity in both cases were compared.\nUsing the purified OgLDH preparation obtained above, the ratios of remaining activities (%) in the presence and absence of a LDH stabilizer were compared in accordance with the LDH thermal stability evaluation method described in Section 4. In this manner, a stabilizer was searched.\nThe pH of the LDH solution was adjusted to be 7.5 after each of the compounds was added. Heat treatment was carried out at 50° C. for 15 minutes.", "units": {"LDH stability improving effect": "%"}, "values": [{"compound": "N[C@@H](Cc1c[nH]cn1)C(=O)O", "note": "[L-histidine]", "LDH stability improving effect": 27}, {"compound": "Cl.NCCCC[C@H](N)C(=O)O", "note": "[L-lysine hydrochloride]", "LDH stability improving effect": 66}, {"compound": "NCC(=O)O", "note": "[glycine]", "LDH stability improving effect": 11}]}, {"biological_target": "T1, lactate dehydrogenase from Saccharomyces cereviciae (ScLDH) (Saccharomyces cerevisiae, UniProt P00175)", "T1 construct": "made in house; host or cells: Escherichia coli BL21 (pKK223-3-ScLDH); unpurified supernatant of crushed cells", "T1 sequence (P00175 86-591)": "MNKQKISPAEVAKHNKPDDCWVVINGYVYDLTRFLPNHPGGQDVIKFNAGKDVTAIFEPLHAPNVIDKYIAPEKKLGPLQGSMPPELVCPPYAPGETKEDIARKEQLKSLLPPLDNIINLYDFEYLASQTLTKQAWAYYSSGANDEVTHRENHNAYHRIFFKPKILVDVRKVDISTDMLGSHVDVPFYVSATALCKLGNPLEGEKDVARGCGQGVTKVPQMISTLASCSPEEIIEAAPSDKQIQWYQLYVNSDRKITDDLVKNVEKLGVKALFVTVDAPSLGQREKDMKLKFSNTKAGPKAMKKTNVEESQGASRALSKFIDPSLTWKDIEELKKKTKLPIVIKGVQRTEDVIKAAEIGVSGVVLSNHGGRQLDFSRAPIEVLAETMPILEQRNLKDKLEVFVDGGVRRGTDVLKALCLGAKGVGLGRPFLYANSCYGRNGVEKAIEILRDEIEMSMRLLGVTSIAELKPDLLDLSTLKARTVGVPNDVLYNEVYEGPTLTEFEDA", "assay": "Thermal stability of ScLDH (supernatant of crushed bacterial cells)", "type": "biochemical", "settings": "ScLDH 2 U/mL; compound 300 mM; potassium phosphate buffer pH 7.5; 40°C for 15 minutes", "method": "as §1, §2\nUsing the supernatant of a solution comprising crushed ScLDH bacterial cells obtained above, the ratios of remaining activities (%) in the presence and absence of a LDH stabilizer were compared in accordance with the LDH thermal stability evaluation method described in Section 4. In this manner, a stabilizer was searched.\nThe pH of the LDH solution was adjusted to be 7.5 after each of the compounds was added. Heat treatment was carried out at 40° C. for 15 minutes.", "units": {"stability improving effect on ScLDH": "%"}, "values": [{"compound": "N.N.O=S(=O)(O)O", "note": "[Ammonium sulfate, ammonium sulfate]", "stability improving effect on ScLDH": 24}]}, {"system": "lactate dehydrogenase from Pichia kudriavzevii (PkLDH)", "assay": "Chronoamperometry with printed electrode to which PkLDH plus stabilizer was applied and dried (5 mM mPMS/PBS)", "type": "biochemical", "settings": "added compound 50 mM, +200 mV, 0 mM lactate", "method": "(§3) An enzyme electrode was prepared using the purified PkLDH preparation obtained above and chronoamperometry was carried out. Each of the compounds was added to an enzyme solution in advance and tested whether or not a stabilizing effect of the enzyme during a drying step was exerted. LDH (1 U) solutions comprising compounds in a concentration (0.2% (w/v), 2% (w/v) and 50 mM, respectively) as described in Table 8 were each applied to a screen-printed carbon electrode C110 (manufactured by Metrohm-Dropsens) in an amount of 4 μL and dried at 40° C. for 60 minutes. The same procedure was repeated using an LDH solution without adding any one of the compounds. Each of the electrodes prepared was connected to ALS electrochemical analyzer 814D (manufactured by BAS) using a dedicated connector (DRP-CAC, manufactured by Drop Sense). Subsequently, 100 μL of a 2 mM mPMS/PBS solution was added dropwise to dissolve the dried LDH. The applied voltage was +200 mV (vs Ag/Ag+). An L-sodium lactate solution was added and a response current value 5 seconds after initiation of measurement was recorded. […] Further, in the same manner as above, a 1 U LDH solution comprising 1% polyacrylic acid was applied to a screen printed carbon electrode and dried and then a 2 mM mPMS/PBS solution (100 μL) was added dropwise to dissolve the dried LDH. Then, an L-sodium lactate solution was added such that the final concentration thereof would be 2 to 10 mM, and a response current value 5 seconds after initiation of measurement was recorded.\n(§4) Chronoamperometry was carried out by changing the concentration of the compound to be added as a stabilizer and the concentration of L-sodium lactate used as a substrate. To an electrode prepared in the same manner as in the preceding Section, 100 μL of a 5 mM mPMS/PBS solution was added dropwise to dissolve the dried LDH. A voltage of +200 mV (vs Ag/Ag+) was applied. An L-sodium lactate solution was added and a response current value 5 seconds after initiation of measurement was recorded.", "units": {"Current value 5 second later (μA), 0 mM lactate": "μA"}, "values": [{"compound": "O=C([O-])CC(O)C(=O)[O-].[Na+].[Na+]", "note": "[L-sodium malate]", "Current value 5 second later (μA), 0 mM lactate": 0.43}, {"compound": "O[C@H]1[C@H](O)[C@@H](O)[C@H](O)[C@@H](O)[C@H]1O", "note": "[myo-inositol]", "Current value 5 second later (μA), 0 mM lactate": 0.23}]}, {"system": "lactate dehydrogenase from Pichia kudriavzevii (PkLDH)", "assay": "Chronoamperometry with printed electrode to which PkLDH plus stabilizer was applied and dried (5 mM mPMS/PBS)", "type": "biochemical", "settings": "added compound 50 mM, +200 mV, 5 mM lactate", "method": "as §3, §4", "units": {"Current value 5 second later (μA), 5 mM lactate": "μA"}, "values": [{"compound": "O=C([O-])CC(O)C(=O)[O-].[Na+].[Na+]", "note": "[L-sodium malate]", "Current value 5 second later (μA), 5 mM lactate": 94.4}, {"compound": "O[C@H]1[C@H](O)[C@@H](O)[C@H](O)[C@@H](O)[C@H]1O", "note": "[myo-inositol]", "Current value 5 second later (μA), 5 mM lactate": 104.4}]}]}
